The values below come from publication PMC3412733, “Identification and recombinant expression of anandamide hydrolyzing enzyme from Dictyostelium discoideum” (BMC Microbiology, 2012).

The target in the assay is T1, MBP-FAAH (Dictyostelium FAAH) (Dictyostelium discoideum, UniProt Q8MMR8).
T1 construct: gene DDB_G0275967; full length (637 residues) with N-terminal MBP and 6xHis tags kept, expressed in E. coli BL21(DE3) (pCWMalET), amylose resin purified
T1 sequence (Q8MMR8 1-637): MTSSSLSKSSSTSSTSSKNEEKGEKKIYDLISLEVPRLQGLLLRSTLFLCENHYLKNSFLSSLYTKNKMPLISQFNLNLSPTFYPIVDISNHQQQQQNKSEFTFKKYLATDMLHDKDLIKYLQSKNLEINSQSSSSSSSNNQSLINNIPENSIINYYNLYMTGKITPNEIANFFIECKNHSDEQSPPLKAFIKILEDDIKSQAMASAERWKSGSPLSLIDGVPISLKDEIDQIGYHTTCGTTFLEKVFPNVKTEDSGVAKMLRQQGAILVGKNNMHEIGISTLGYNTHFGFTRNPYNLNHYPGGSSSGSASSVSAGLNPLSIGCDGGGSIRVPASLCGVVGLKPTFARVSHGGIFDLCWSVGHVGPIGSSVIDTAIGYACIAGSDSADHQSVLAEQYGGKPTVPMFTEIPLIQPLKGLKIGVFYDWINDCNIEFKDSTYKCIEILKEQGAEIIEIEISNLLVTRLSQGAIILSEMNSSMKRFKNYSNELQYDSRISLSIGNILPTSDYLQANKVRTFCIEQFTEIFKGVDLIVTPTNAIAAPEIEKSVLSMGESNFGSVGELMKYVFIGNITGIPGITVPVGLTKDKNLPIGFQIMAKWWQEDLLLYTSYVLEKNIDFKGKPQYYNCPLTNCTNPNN
The assay can be described thus: CE-ES-MS of product arachidonic acid. The note with it: pH 9.0, 50 mM NaCl, 10% DMSO, 37°C, 30 min. Type of assay: biochemical.

As for `CCCCC/C=C\C/C=C\C/C=C\C/C=C\CCCC(=O)NCCO` [anandamide], the “CE-ES-MS of product arachidonic acid” value was “hydrolyzed anandamide to free arachidonic acid and ethanolamine as determined by CE-ES-MS”.
